We go through seven compounds from publication PMC9241695, “Selective Metal Chelation by a Thiosemicarbazone Derivative Interferes with Mitochondrial Respiration and Ribosome Biogenesis in Candida albicans” (Microbiology Spectrum, 2022).

Experiment [1] relates to C. albicans SC5314. The experiment can be described thus: Antifungal susceptibility testing, microbroth dilution MIC. Type of experiment: cell-based. Particulars: Candida albicans, SC5314, 24 h, read-out: MIC (μg/mL) against fungi SC5314. The source says: (§1) Compound library. The thiosemicarbazone derivatives Triapine and COTI-2 were purchased from Med Chem Express (MCE). The other 87 thiosemicarbazones used in this study were previously synthesized by our collaborators (1, 2). Their structures are shown in Table 1 and Table S1 to help the reader clearly understand the relationship between structure and activity.
(§2) Strains and culture conditions. Clinically derived C. albicans isolates, including G5, F5, and Gu5, were kindly provided by Professor Joachim Morschhäuser of the University of Würzburg. Other clinical C. albicans isolates were kindly donated by Professor Qingguo Qi of Shandong University and Qianfoshan Hospital of Shandong Province Other Candida strains were obtained from Jinan Central Hospital.
(§3) The zap1 mutant and its complemented strain were kindly provided by Professor Aaron P. Mitchell of Carnegie Mellon University (3). The C. neoformans strains used in this study was kindly donated by Professor Guojian Liao of Southwest University and A. fumigatus strain used in this study was provided by Professor Ling Lu of Nanjing Normal University. Before in vitro and in vivo experiments, all C. albicans strains were grown on YPD agar plates. After culturing at 30°C for 24 h, colonies of each strain were cultured in liquid YPD medium at 30°C with continuous shaking […]
(§4) Antifungal susceptibility testing. To determine in vitro antifungal activities, the microbroth dilution method was carried out in RPMI1640 medium according to the guidelines of the Clinical and Laboratory Standards Institute (4, 5). The initial concentration in RPMI1640 medium was 1 × 10^3 CFU/mL for the C. albicans and C. neoformans suspensions but 1 × 10^4 CFU/mL for A. fumigatus. The range of final drug concentrations was 0.0156–64 μg/mL. The plates were incubated at35°C for 24 […]
(§5) h (for C. albicans, C. krusei, C. tropicalis, C. parapsilosis) or 48 h (for C. neoformans, A. fumigatus). The MIC was determined based on visible growth inhibition compared with the control. All experiments were performed in duplicate. […]

The subject of the next experiment is A. fumigatus AF293. Described as above. Particulars: Aspergillus fumigatus, read-out: MIC (μg/mL) against fungi AF293. It is filed as cell-based.
From the text: as §1, §2
(§6) The zap1 mutant and its complemented strain were kindly provided by Professor Aaron P. Mitchell of Carnegie Mellon University (3). The C. neoformans strains used in this study was kindly donated by Professor Guojian Liao of Southwest University and A. fumigatus strain used in this study was provided by Professor Ling Lu of Nanjing Normal University. […]
as §4, §5

A further experiment has as its system C. neoformans H99. Described as above. Type of experiment: cell-based. The settings on record: Cryptococcus neoformans, H99, 48 h, read-out: MIC (μg/mL) against fungi H99.
From the text: as §1, §2, §6, §4, §5

The next experiment relates to A. fumigatus 1161. The experiment can be described thus: Microbroth dilution MIC80. The settings on record: Aspergillus fumigatus; A. fumigatus 1161; read-out: MIC80. Type of experiment: cell-based.
From the text: as §1, §2, §3, §4, §5

The test system of experiment [2] is C. albicans SC5314. The experiment can be described thus: qPCR of genes associated with ribosome biogenesis. It is filed as cell-based, Candida albicans. Particulars: CPX 0.5 or 2 μg/mL 8 h; DFO 64 µg/mL 6 h; TPEN 0.05 or 0.2 μg/mL 6 h. As for the experimental part: Determination of SOD activity. SOD activity was measured using the Superoxide Dismutase Activity Assay Kit (Njjcbio, Nanjing, China) following the manufacturer's instructions. An overnight culture of C. albicans SC5314 was adjusted to 1 × 10^7 cells/mL with RPMI1640 medium and treated with 19ak at a final concentration of 0, 0.125, 0.25, 0.5, or 1 μg/mL for 6 h. After collection by centrifugation, the cells were broken by glass beads in extraction buffer and centrifuged at 4°C. The absorbance of the supernatant of each sample was measured with a microplate reader at450 nm.
Determination of catalase (CAT) activity. CAT activity was measured by using a Catalase Assay Kit (Solarbio, Beijing, China) following the manufacturer's instructions. An overnight culture of C. albicans SC5314 was adjusted to 1 × 10^6 cells/mL with RPMI1640 medium and treated as described above for SOD activity.
The decomposition of H2O2 is directly accompanied by a decrease in absorbance at 240 nm, and the difference in absorbance per unit time (ΔA240) is a measure of […]
Quantitative real-time polymerase chain reaction (qPCR) analysis. C. albicans SC5314 cells (1 × 10^6 cells/mL) were incubated with or without 19ak (0.5,2 […]
Total RNA was extracted using the hot phenol method, and the RNA quality was analyzed using a spectrophotometer (Eppendorf, Hamburg, Germany). The RNA was converted to cDNA using a cDNA Reverse
Transcription kit (Accurate Biotechnology, Hunan, China). PCR detection based on SYBR Green was performed on an Eppendorf real-time PCR system (Eppendorf, […]
Drug resistance study. Drug resistance studies were carried out by repeatedly treating C. albicans with an antifungal agent followed by MIC determination using […]
(Quantitative PCR measures a nucleic acid by following its amplification.)

The MIC80 is an inhibitory concentration at the 80% level, which refers to growth in some studies and to a panel of isolates in others.

Structures are written as SMILES. ≈ marks a conversion by molar mass, not a printed value. Like-named read-outs stand apart in the source and are kept apart here.

Take `CCC/C(=N\NC(=S)Nc1ccccc1Br)c1ccccn1` [Compound 19v]: the MIC came out at 1 µg/mL (≈ 2.65 µM) with C. albicans SC5314 [1]; 4 µg/mL (≈ 10.6 µM) with A. fumigatus AF293 (AF293, 48 h); 0.25 µg/mL (≈ 0.663 µM) in the experiment on C. neoformans H99.

Turning to `C[C@@H](c1ncncc1F)[C@](O)(Cn1cncn1)c1ccc(F)cc1F` [VOR, voriconazole, reference compound], the MIC in the experiment on A. fumigatus AF293 (AF293, standard strain of A. fumigatus, 48 h) was 0.25 µg/mL (≈ 0.716 µM). The MIC80 with A. fumigatus 1161 is 0.25 µg/mL (≈ 0.716 µM).

Regarding `COc1ccc(NC(=S)N/N=C(\C)c2ccccn2)cc1` [Compound 19s], the MIC with C. albicans SC5314 [1] amounted to 2 µg/mL (≈ 6.66 µM); in the experiment on A. fumigatus AF293 (AF293, 48 h), 8 µg/mL (≈ 26.6 µM); in the experiment on C. neoformans H99, 0.25 µg/mL (≈ 0.832 µM).

For `S=C(N/N=C/c1ccccn1)N1CCOCC1` [Compound 19ao], the MIC turned out to be 2 µg/mL (≈ 7.99 µM) with C. albicans SC5314 [1]; 8 µg/mL (≈ 32 µM) with A. fumigatus AF293 (AF293, 48 h); 0.5 µg/mL (≈ 2 µM) with C. neoformans H99.

Regarding `S=C(N/N=C1\CCCc2cccnc21)N1CCN(c2ccccn2)CC1` [COTI-2, 4-(pyridine-2-yl)-N-([(8E)-5,6,7,8-tetrahydroquinolin-8-ylidene]amino) piperazine-1-carbothioamide, reference compound], the MIC in the experiment on C. albicans SC5314 [1] stood at 0.5 µg/mL (≈ 1.36 µM); in the experiment with A. fumigatus AF293 (AF293, 48 h), 1 µg/mL (≈ 2.73 µM); with C. neoformans H99, 0.0625 µg/mL (≈ 0.171 µM).

Turning to `C/C(=N\NC(=S)Nc1ccccc1Br)c1ccccn1` [Compound 19r], the MIC amounted to 1 µg/mL (≈ 2.86 µM) in the experiment on C. albicans SC5314 [1]; 8 µg/mL (≈ 22.9 µM) with A. fumigatus AF293 (AF293, 48 h); 8 µg/mL (≈ 22.9 µM) in the experiment with C. neoformans H99.

In the case of `Cc1cc(C2CCCCC2)n(O)c(=O)c1` [CPX, ciclopirox olamine], the “Expression of genes associated with ribosome biogenesis (qPCR)” value in the experiment with C. albicans SC5314 [2] is recorded as “no obvious effect”.
